Reference: patent US20230031406A1, “COMPOUNDS AND COMPOSITIONS FOR TREATING CONDITIONS ASSOCIATED WITH NLRP ACTIVITY” (Novartis AG, priority 2018, published 2023)

Test system: PMA-differentiated THP-1 cells
Test: IL-1β production in PMA-differentiated THP-1 cells stimulated with gramicidin (hTHP-1 assay containing 2% fetal bovine serum; Procedures 1 and 2)
Format: cell-based, human
Conditions: Homo sapiens, THP-1, Table B2; 2% fetal bovine serum; class symbols; read-out: hTHP-1 IC50
How it was run: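 Human monocytic THP-1 cells, matured overnight with PMA at 20 ng/ml, are seeded in low-serum (2% FBS) RPMI. Test compounds, at final concentrations from 100 down to 0.0017 μM, precede gramicidin (5 μM, 2 h) by one hour. Released IL-1β is then determined by HTRF.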

| Structure (SMILES) | IC50 |
| --- | --- |
| CC(C)(O)c1cc(S(N)(=O)=NC(=O)Nc2c3c(nc4c2CCC4(C)C)CCC3)nn1-c1ccccc1 (single isomer, unassigned) [Compound 663b, (R) or (S)-N′-((3,3-dimethyl-1,2,3,5,6,7-hexahydrodicyclopenta [b,e]pyridin-8-yl)carbamoyl)-5-(2-hydroxypropan-2-yl)-1-phenyl-1H-pyrazole-3-sulfonimidamide] | 1 to 5 µM |
| CC1CCc2c1nc1c(c2NC(=O)N=S(N)(=O)c2cc(C(C)(C)O)n(-c3ccccc3)n2)CCC1 (single isomer, unassigned) [Compound 664b, (R) or (S)-5-(2-Hydroxypropan-2-yl)-N′-((3-methyl-1,2,3,5,6,7-hexahydrodicyclopenta [b,e]pyridin-8-yl)carbamoyl)-1-phenyl-1H-pyrazole-3-sulfonimidamide] | 1 to 5 µM |
| Cc1c(CC2CC2)nc2c(c1NC(=O)N=S(N)(=O)c1cc(C(C)(C)O)cs1)CCC2 (single isomer, unassigned) [Compound 665b, (R) or (S)-N′-((2-(cyclopropylmethyl)-3-methyl-6,7-dihydro-5H-cyclopenta[b]pyridin-4-yl)carbamoyl)-4-(2-hydroxypropan-2-yl)thiophene-2-sulfonimidamide] | 1 to 5 µM |
| CCC1CCc2c1nc1c(c2NC(=O)N=S(N)(=O)c2ccn(C(F)F)n2)CCC1 (single isomer, unassigned) [Compound 668b, (R, R) or (R, S) or (S, R) or (S, S)-1-(Difluoromethyl)-N′-((3-ethyl-1,2,3,5,6,7-hexahydrodicyclopenta [b,e]pyridin-8-yl)carbamoyl)-1H-pyrazole-3-sulfonimidamide] | 5 to 30 µM |
| CCC1CCc2c1nc1c(c2NC(=O)N=S(N)(=O)c2ccn(C(F)F)n2)CCC1 (single isomer, unassigned) [Compound 668c, (R, R) or (R, S) or (S, R) or (S, S)-1-(Difluoromethyl)-N′-((3-ethyl-1,2,3,5,6,7-hexahydrodicyclopenta [b,e]pyridin-8-yl)carbamoyl)-1H-pyrazole-3-sulfonimidamide] | 5 to 30 µM |
| Cc1c(C2(C)CC2)nc2c(c1NC(=O)N=S(N)(=O)c1cc(C(C)(C)O)cs1)CCC2 (single isomer, unassigned) [Compound 669b, (R) or (S)-4-(2-Hydroxypropan-2-yl)-N′-((3-methyl-2-(1-methylcyclopropyl)-6,7-dihydro-5H-cyclopenta[b]pyridin-4-yl)carbamoyl) thiophene-2-sulfonimidamide] | 5 to 30 µM |
| CC(C)(O)c1ccc(S(N)(=O)=NC(=O)Nc2c3c(nc4c2CCC4(C)C)CCC3)cn1 (single isomer, unassigned) [Compound 673a, (R) or (S)-N′-((3,3-dimethyl-1,2,3,5,6,7-hexahydrodicyclopenta [b,e]pyridin-8-yl)carbamoyl)-6-(2-hydroxypropan-2-yl)pyridine-3-sulfonimidamide] | 1 to 5 µM |

Same assay, conditions: Homo sapiens, THP-1, Table B2; 2% fetal bovine serum; numeric bounds; read-out: hTHP-1 IC50

| Structure (SMILES) | IC50 |
| --- | --- |
| CCC1CCc2c1nc1c(c2NC(=O)N=S(N)(=O)c2cnc(C(C)(C)O)s2)CCC1 (single isomer, unassigned) [Compound 662b, (S, R) or (S, S) or (R, S) or (R, R)-N′-((3-Ethyl-1,2,3,5,6,7-hexaliydrodicyclopenta [b,e]pyridin-8-yl)caibamoyl)-2-(2-hydroxypropan-2-yl)thiazole-5-sulfonimidamide] | > 30 µM |
| CC(C)(O)c1cc(S(N)(=O)=NC(=O)Nc2c3c(nc4c2CCC4(C)C)CCC3)nn1-c1ccccc1 (single isomer, unassigned) [Compound 663a, (S) or (R)-N′-((3,3-dimethyl-1,2,3,5,6,7-hexahydrodicyclopenta [b,e]pyridin-8-yl)carbamoyl)-5-(2-hydroxypropan-2-yl)-1-phenyl-1H-pyrazole-3-sulfonimidamide] | > 30 µM |
| CC1CCc2c1nc1c(c2NC(=O)N=S(N)(=O)c2cc(C(C)(C)O)n(-c3ccccc3)n2)CCC1 (single isomer, unassigned) [Compound 664a, (S) or (R)-5-(2-Hydroxypropan-2-yl)-N′-((3-methyl-1,2,3,5,6,7-hexahydrodicyclopenta [b,e]pyridin-8-yl)carbamoyl)-1-phenyl)-1-pyrazole-3-sulfonimidamide] | > 30 µM |
| Cc1c(CC2CC2)nc2c(c1NC(=O)N=S(N)(=O)c1cc(C(C)(C)O)cs1)CCC2 (single isomer, unassigned) [Compound 665a, (S) or (R)-N′-((2-(cyclopropylmethyl)-3-methyl-6,7-dihydro-5H-cyclopenta[b]pyridin-4-yl)carbamoyl)-4-(2-hydroxypropan-2-yl)thiophene-2-sulfonimidamide] | > 30 µM |
| CCC1CCc2c1nc1c(c2NC(=O)N=S(N)(=O)c2ccn(C(F)F)n2)CCC1 (single isomer, unassigned) [Compound 668a, (S, S) or (S, R) or (R, S) or (R, R)-1-(Difluoromethyl)-N′-((3-ethyl-1,2,3,5,6,7-hexahydrodicyclopenta [b,e]pyridin-8-yl)carbamoyl)-1H-pyrazole-3-sulfonimidamide] | > 30 µM |
| Cc1c(C2(C)CC2)nc2c(c1NC(=O)N=S(N)(=O)c1cc(C(C)(C)O)cs1)CCC2 (single isomer, unassigned) [Compound 669a, (S) or (R)-4-(2-Hydroxypropan-2-yl)-N′-((3-methyl-2-(1-methylcyclopropyl)-6,7-dihydro-5H-cyclopenta[b]pyridin-4-yl)carbamoyl) thiophene-2-sulfonimidamide] | > 30 µM |
| CCC1CCc2c1nc1c(c2NC(=O)N=S(N)(=O)c2sc(C(C)(C)O)cc2F)CCC1 (single isomer, unassigned) [Compound 671a, (S, S) or (S, R) or (R, S) or (R, R)-N′-((3-ethyl-1,2,3,5,6,7-hexahydrodicyclopenta [b,e]pyridin-8-yl)carbamoyl)-3-fluoro-5-(2-hydroxypropan-2-yl) thiophene-2-sulfonimidamide] | > 30 µM |

Same assay, conditions: Table B2; 2% fetal bovine serum; class symbols; read-out: hTHP-1 IC50

| Structure (SMILES) | IC50 |
| --- | --- |
| CCC1CCc2c1nc1c(c2NC(=O)N=S(N)(=O)c2cnc(C(C)(C)O)s2)CCC1 (single isomer, unassigned) [Compound 662d, (R, R) or (R, S) or (S, R) or (S, S)-N′-((3-Ethyl-1,2,3,5,6,7-hexaliydrodicyclopenta [b,e]pyridin-8-yl)caibamoyl)-2-(2-hydroxypropan-2-yl)thiazole-5-sulfonimidamide] | 5 to 30 µM |
| CC(C)c1c(C2CC2)nc2c(c1NC(=O)N=S(N)(=O)c1cc(C(C)(C)O)cs1)CCC2 (single isomer, unassigned) [Compound 667a, (S) or (R)-N′-((2-cyclopropyl-3-isopropyl-6,7-dihydro-5H-cyclopenta[b]pyridin-4-yl)carbamoyl)-4-(2-hydroxypropan-2-yl)thiophene-2-sulfonimidamide] | 5 to 30 µM |
| CC(C)c1c(C2CC2)nc2c(c1NC(=O)N=S(N)(=O)c1cc(C(C)(C)O)cs1)CCC2 (single isomer, unassigned) [Compound 667b, (R) or (S)-N′-((2-cyclopropyl-3-isopropyl-6,7-dihydro-5H-cyclopenta[b]pyridin-4-yl)carbamoyl)-4-(2-hydroxypropan-2-yl)thiophene-2-sulfonimidamide] | 0.2 to 1 µM |
| CC(C)(O)c1csc(S(N)(=O)=NC(=O)Nc2c3c(nc(C4CC4)c2C2CC2)CCC3)c1 (single isomer, unassigned) [Compound 670a, (S) or (R)-N′-((2,3-dicyclopropyl-6,7-dihydro-5H-cyclopenta[b]pyridin-4-yl)carbamoyl)-4-(2-hydroxypropan-2-yl)thiophene-2-sulfonimidamide] | 5 to 30 µM |
| CC(C)(O)c1csc(S(N)(=O)=NC(=O)Nc2c3c(nc(C4CC4)c2C2CC2)CCC3)c1 (single isomer, unassigned) [Compound 670b, (R) or (S)-N′-((2,3-dicyclopropyl-6,7-dihydro-5H-cyclopenta[b]pyridin-4-yl)carbamoyl)-4-(2-hydroxypropan-2-yl)thiophene-2-sulfonimidamide] | 0.04 to 0.2 µM |
| CCC1CCc2c1nc1c(c2NC(=O)N=S(N)(=O)c2sc(C(C)(C)O)cc2F)CCC1 (single isomer, unassigned) [Compound 671b, (S, R) or (S, S) or (R, S) or (R, R)-N′-((3-ethyl-1,2,3,5,6,7-hexahydrodicyclopenta [b,e]pyridin-8-yl)carbamoyl)-3-fluoro-5-(2-hydroxypropan-2-yl) thiophene-2-sulfonimidamide] | 5 to 30 µM |
| CCC1CCc2c1nc1c(c2NC(=O)N=S(N)(=O)c2sc(C(C)(C)O)cc2F)CCC1 (single isomer, unassigned) [Compound 671c, (R, S) or (R, R) or (S, R) or (S, S)-N′-((3-ethyl-1,2,3,5,6,7-hexahydrodicyclopenta [b,e]pyridin-8-yl)carbamoyl)-3-fluoro-5-(2-hydroxypropan-2-yl) thiophene-2-sulfonimidamide] | 1 to 5 µM |
| CCC1CCc2c1nc1c(c2NC(=O)N=S(N)(=O)c2sc(C(C)(C)O)cc2F)CCC1 (single isomer, unassigned) [Compound 671d, (R, R) or (R, S) or (S, R) or (S, S)-N′-((3-ethyl-1,2,3,5,6,7-hexahydrodicyclopenta [b,e]pyridin-8-yl)carbamoyl)-3-fluoro-5-(2-hydroxypropan-2-yl) thiophene-2-sulfonimidamide] | 0.2 to 1 µM |

Same assay, conditions: Table B2; 2% fetal bovine serum; numeric bounds; read-out: hTHP-1 IC50

| Structure (SMILES) | IC50 |
| --- | --- |
| CCC1CCc2c1nc1c(c2NC(=O)N=S(N)(=O)c2ccn(C(F)F)n2)CCC1 (single isomer, unassigned) [Compound 668d, (S, R) or (S, S) or (R, S) or (R, R)-1-(Difluoromethyl)-N′-((3-ethyl-1,2,3,5,6,7-hexahydrodicyclopenta [b,e]pyridin-8-yl)carbamoyl)-1H-pyrazole-3-sulfonimidamide] | > 30 µM |
